Measurements published in a melting point compilation (Tetko et al.; mined from patent text by program, amines drawn as free bases though some values may be those of a salt).

SMILES	melting point
Fc1cc(F)c(COc2cccnc2NC(=S)Nc2ccc(Cl)cc2)c(F)c1	181 to 183 °C
N#Cc1ccc(CN2CCC(N3C(=O)Nc4ccccc4C3c3ccccc3)CC2)cc1 (stereo not drawn)	189 to 192 °C
Nc1nc(NC(=O)c2cccnc2)nc(-c2ccc3ccccc3c2O)n1	301 to 302 °C
CSC(=S)NCc1ccc([N+](=O)[O-])cc1	106 to 107 °C
CCOC(=O)COC(=O)c1c(Cl)cccc1Cl	50 to 51 °C
COC(=O)C1=CCC2C(CCC3C(C)(C)CCCC23C)C(=O)C1 (stereo not drawn)	93 to 94 °C
CNC(=NC#N)NCCSCc1nccc(N)n1	189 to 190 °C
CC(=O)SCC(Cc1ccccc1)C(=O)Nc1ccc(C)c(C(=O)O)c1C (stereo not drawn)	187 to 189 °C
Oc1cc2c3ccc(O)c(O)c3n(CCCc3ccccc3)c2cc1O	246 to 252 °C
CCOP(=O)(OCC)C(Nc1nc2ccccc2s1)P(=O)(OCC)OCC	165 to 167 °C
CCOC(=O)NC(=O)CN(C)C(=O)c1c(F)ccc2c(C(F)(F)F)c(OC)ccc12	130 to 132 °C
CNC(=O)Oc1ccccc1C(=O)NC(Oc1ccccc1)C(Cl)(Cl)Cl (stereo not drawn)	138 to 141 °C
COc1ncnc2c(Cl)c(NC(=S)NCCN)ccc12	230 to 232 °C
CC(C)(C)c1cc(CCc2ccccc2NC(=O)NC2CCN(Cc3cccc(F)c3)CC2)cc(C(C)(C)C)c1O	99 to 100 °C
COc1cc(C(=O)O)ccc1-c1nc2cc(Cl)c(Cl)cc2[nH]1	> 250 °C
O=C(NCCC1CC1)c1ccc(N2CCN(C(=S)c3ccccc3C(F)(F)F)CC2)nn1	117 to 120 °C
CCCCCCCCCCC[C@H](CC(=O)N[C@@H](CO)C(=O)OCc1ccccc1)OC(=O)CCCCCCC	50 to 51 °C
CC(C)c1ccc2c(=O)c(S(C)=O)cn(C)c2c1 (stereo not drawn)	214 to 215 °C
c1ccc(CN2CCC3(CC2)SCCS3)cc1	51 to 53 °C
CCn1cc(C(=O)O)c(=O)c2cc3cc(F)c(N4CCNC(c5ccc(F)cc5)C4)cc3nc21 (racemic)	298 °C
COc1ccc(CCOc2cccc(-c3cccc(N)c3)n2)cc1OC	103 to 104 °C
CN(C)C(=O)N(C)Cc1ccc(CCn2cnc3cc(-c4ccc(Cl)cc4)sc3c2=O)cc1	160 to 165 °C
c1nnc2c3c(c(NCCCN4CCCC4)nn12)CCCC3	169 to 171 °C
O=C(NCCc1c[nH]c2ccc([N+](=O)[O-])cc12)C(F)(F)F	200 to 201 °C
CO[C@]12C[C@@H](CN3CCC(O)(c4ccc(Cl)c(C(F)(F)F)c4)CC3)CN(C)[C@@H]1Cc1c[nH]c3cccc2c13	143 to 146 °C

SMILES	melting point
Cn1c(C(F)(F)F)nn(-c2ccc(Cl)c(C(=O)O)c2)c1=O	223 °C
O=C(NCc1cc(Cl)cc(Cl)c1)c1ccnc(NC(=O)c2ccccc2)c1	248 to 251 °C
CN1C(=O)[C@@H](NC(=O)c2ccc(C(F)(F)F)cc2)N=C(c2ccccc2)c2ccccc21	125 to 127 °C
COc1cc(NC2=C(Cl)C(=O)c3ccccc3C2=O)ccc1S(=O)(=O)Nc1ccccc1C	197 to 200 °C
NC(=O)C=Cc1cccc(NC(=O)c2cc(-c3cccc(F)c3)ccc2F)c1	216 to 218 °C
c1cc2sc(C3OCCO3)cc2s1	88 to 90 °C
CCOC(=O)NN=C(c1ccc(Cl)cc1)c1ccc(NS(C)(=O)=O)cc1	198 to 200 °C
COc1ccc2c(-c3cnc4[nH]cc(C(=O)N[C@H](C)C(=O)N5CC(C#N)C5)c4n3)nn(C)c2c1	220 to 240 °C
CNS(=O)(=O)c1cc(S(=O)(=O)NCc2ccccc2)c(Cl)cc1N	151 to 152 °C
CNC(=S)Nc1ccccc1	113 °C
ClCCN(CCCl)CCCCOc1cccc(Nc2c3ccccc3nc3ccccc23)c1	126 to 127 °C
COc1ccc2sc(SCc3c(F)c(F)c(F)c(F)c3F)nc2c1	71 to 75 °C
CN1C(=O)C(=CC(=O)O)SC1=Nc1ccc(Cl)c(Cl)c1	225 to 226 °C
C[Si](C)(C)CCOCn1ccc(=O)[nH]c1=O	120 to 122 °C
CC(C)(C)OC(=O)N1CCC[C@@H]1Cc1cccc2ccc(N)cc12	157 to 158 °C
OCc1cn2c(n1)CN=C(c1ccccc1)c1cc(Cl)ccc1-2	203 to 204 °C
CC1(C)CC(C)(c2ccc(Oc3ccc([N+](=O)[O-])cc3)cc2)c2cc(Oc3ccc([N+](=O)[O-])cc3)ccc21 (stereo not drawn)	214 to 216 °C
O=C(O)Cc1cccc2c(C3CCCCC3)nccc12	178 to 179 °C
COC(=O)c1ccc(OCCCN(C(C)=O)c2ccc(Cl)cc2)cc1	68 to 69 °C
CN(C)c1ccc(CNc2ncnc3c2ncn3C2OC(CO)C(O)C2O)cc1 (stereo not drawn)	170 to 171 °C
OC(COc1ccc(-c2ccccc2Br)cc1)CN1CCCC1 (stereo not drawn)	70 to 72 °C
Nc1ccc(S(=O)(=O)c2cc(-c3ccc(Cl)cc3)nc(N3CCCC3)c2)cc1	236 to 237 °C
COc1cc(O)cc2c1-c1c(O)cccc1C2=O	71 to 72 °C
NC(=O)c1cccc(Oc2ncccc2C(=O)NCc2ccccc2Cl)c1	153 to 155 °C
Cc1cc(Cl)nc(C#N)c1	133 °C

SMILES	melting point
CCCNC(=O)COC1c2ccccc2C(=O)N1c1ccc2ccc(OC)nc2n1 (stereo not drawn)	174 °C
CCOC(=O)Cc1cc2cc(Br)ccc2s1	56 to 57 °C
CCN(CC)C(=O)c1cc2ccc(C)cc2c(-c2ccccc2Cl)n1	162 °C
CC(C)c1ccc(-n2nnc(-c3ccc(OC(=O)C(C)(C)C)cc3)n2)cc1	122 to 125 °C
CCOC(=O)C1CN(C(=O)c2ccccc2)CC1c1ccc(NC(=O)Cc2ccc(NC(=O)Nc3ccccc3C)c(OC)c2)cc1 (stereo not drawn)	130 °C
COC(=O)C(C)(C)CCCOc1cc(C)c(OCc2ccccc2)cc1C	75.5 to 76.5 °C
CCOC(=O)N(CCNc1ccc2ncc(Br)n2n1)c1ccccc1	160 to 161 °C
C=Cc1cccc(-c2nc(CCOc3ccc(OC(C)(C)C(=O)O)cc3)c(C)o2)c1	137 to 139 °C
CCOC(=O)c1ccc(I)nc1	48 to 49 °C
CN1C(=O)N(CC(COc2ccc(-c3ccc(OC(F)(F)F)cc3)cc2)N(O)C=O)C(=O)C1(C)C (stereo not drawn)	114 to 118 °C
CNC(=O)c1ccc(N2CCC(OC3CCN(C4CCC4)CC3)CC2)cn1	110 °C
CC(C)(Cc1ccc(Br)cc1)C(C(=O)O)C(=O)O	169 to 173 °C
ON=Cc1cccc2cccc(N3CCCC3)c12	187 to 188 °C
CC(CCCc1ccccc1)Oc1cc(O)c2c(c1)CC(C)(C)CC2C(N)=O (stereo not drawn)	155 to 157 °C
CCCn1nc2c(-c3ccccc3)cccc2c1-c1ccc(O)cc1	207 to 208 °C
NC1=Nc2ccc([N+](=O)[O-])cc2C(c2ccccc2F)=NC1	225 to 227 °C
CS(=O)(=O)Nc1cc(O)c2c(c1)C(=O)c1cccc(O)c1C2=O	> 300 °C
Cc1c(O)ccc2c(=O)c(-c3ccc4c(c3)OCO4)coc12	270 to 272 °C
CCOCCC(=O)NN	34 °C
CC(C)(C)c1cc(-c2nn(CCOC(=O)c3cccnc3)c3ncccc23)cc(C(C)(C)C)c1O	134 to 136 °C
CCC(COC)NC(=O)C(Cc1ccc(OCc2ccccc2)cc1)NC(=O)C(CC(C)C)N(C)CCC(C)C (stereo not drawn)	83 to 85 °C
CS(=O)(=O)N1CCC(C2=C(C#N)C(c3cccc(C#N)c3Br)c3c[nH]nc3N2)CC1 (stereo not drawn)	> 280 °C
CCC12CCC3C4CCC(=O)C=C4CCC3C1CCC2OC(=O)c1ccccc1 (stereo not drawn)	141 to 149 °C
CC(CC(Sc1cc(C(C)(C)C)c(O)c(C(C)(C)C)c1)Sc1cc(C(C)(C)C)c(O)c(C(C)(C)C)c1)Sc1cc(C(C)(C)C)c(O)c(C(C)(C)C)c1 (stereo not drawn)	125 to 126 °C
CCOC(=O)c1ncc2[nH]c3cccc(COC)c3c2c1C	133 to 135 °C

SMILES	melting point
Cc1sc2c(I)c3ccccc3c(-c3ccc(OS(C)(=O)=O)cc3)c2c1C	212 to 213 °C
Cc1nc(-c2ccccc2)nc(NCC(=O)N(C)c2ccccc2)c1Cl	154 to 155 °C
CCOC(=O)c1cn(C)c2nc(Cl)ncc2c1=O	205 °C
COc1ccc(-c2coc3cc(OCC4CO4)ccc3c2=O)cc1OC (stereo not drawn)	161 to 162 °C
Cc1c(C(=O)O)oc2c(c1=O)CSc1ccccc1-2	299 to 301 °C
N#CC(Cl)Cc1ccc(Cl)cc1C(=O)c1ccccc1 (stereo not drawn)	69 to 71 °C
O=C(O)c1cccc(CC(Cn2ccnc2)c2ccc(F)cc2)c1 (stereo not drawn)	125 to 130 °C
COC1(C(=O)Nc2ccc(OC(C)C)c(Cl)c2)CC1	86 to 87 °C
CCOC(=O)C(C(=O)OCC)N1CS(=O)c2c(C)cc([N+](=O)[O-])cc21 (stereo not drawn)	97 °C
CC(C)c1cc2ncnn2nc1OCCOCCN1CCN(C(c2ccccc2)c2ccccc2)CC1	119 to 120 °C
CC(=O)c1ccc(S(=O)(=O)Nc2ccc(F)cn2)cc1	151 to 152 °C
CSc1ccc(-c2ccc(S(=O)(=O)CC(CO)N(O)C=O)cc2)cc1 (stereo not drawn)	161 to 162 °C
COc1cc(O)ccc1-c1nc2cnccc2[nH]1	255 °C
CCCCCCCCCCCCCCCCN(C(=O)c1ccc(Cl)c([N+](=O)[O-])c1)c1ccccc1[N+](=O)[O-]	83 to 85 °C
Cc1ccc(-c2nn3cccnc3c2CC(N)=O)cc1	225 to 226 °C
CCCn1cnc(NC)c1C(=O)NCCCCCCOc1ccc(Cl)cc1	66 to 67 °C
C=C(C)Cn1c(=O)n(C)c(=O)c2cn(Cc3cccc4ccccc34)nc21	187 to 189 °C
CC12CCC3C(CCC4CC(I)CCC43C)C1CCC2=O (stereo not drawn)	123 to 125 °C
Cc1nc(Br)c(S(C)(=O)=O)c(Br)n1	161 to 162 °C
CN(C)c1cccc2c(S(=O)(=O)Nc3ccc(I)nn3)cccc12	176 to 178 °C
COc1ccc(-c2c(Cl)c(CN3CCCCC3=O)nc3sc4c(c23)CCN(Cc2ccccc2)C4)cc1OC	113 to 114 °C
CN(C)c1ccc(CCc2nc3sc4c(n3c2CO)CCCCC4)cc1	168 to 170 °C
CC12CCC(=O)C=C1CCC1C2=CCC2(C)C1CCC2(O)C(=O)CO (stereo not drawn)	248 °C
